These results are taken from patent US5175172A, “Method of alleviating AIDS symptoms and compositions therefor” (priority 1988, dated 1992).

Assay [1] has as its target polymerase of Micrococcus Lysodecticus. As to conditions: read-out: Di50 for the inhibition of the DNA polymerase; specificity test, same concentrations as for reverse transcriptase. The text has this:
In order to evaluate the specificity of THA, the effects on the reverse transcriptase and on a non-viral DNA polymerase, namely the polymerase of Micrococcus Lysodecticus have been compared at the same concentrations.

In the next assay the test system is HIV. Description: Seven month follow-up of THA vs AZT in HIV infected patients (open study): clinical results. It counts as in vivo, human.
Another assay has as its system Agp 24. Description: Seven month follow-up of THA vs AZT in HIV infected patients (open study): Agp 24. It counts as in vivo. An excerpt:
Expressed in mean variation (%) in comparison with Do values.

On to `Nc1c2c(nc3ccccc13)CCCC2` [Tacrine, 9-Amino-1,2,3,4-tetrahydroacridine], for which, in assay [1], the IC50 was 1 mM. Moreover, the “Deaths, number” value in the assay with HIV (AZT n = 52, THA n = 51) was found to be 0. The “Kaposi Emergence, number” value with HIV (AZT n = 52, THA n = 51) was 2. Also, in the assay with HIV (AZT n = 52, THA n = 51), the “Kaposi Emergence, percent” value is given as 4%. Also, the “Opportunistic Infections, number” value in the assay on HIV (AZT n = 52, THA n = 51) stood at 3. Further, the “Opportunistic Infections, percent” value in the assay on HIV (AZT n = 52, THA n = 51) is given as 6%. Moreover, the “Deaths, significance p in comparison with AZT courses” value in the assay with HIV (THA vs AZT courses) is reported as less than 0.05. For the same compound, the “THA versus AZT course of treatment, conclusion” value in the assay on HIV (after 6 months of treatment) was “decrease in Agp24 levels, mortality and incidences of opportunistic infections”. Besides, the “Agp 24, mean variation (%) in comparison with D0” value is on record as -39.4% with Agp 24 (D1mth); -28.3% with Agp 24 (D2mth); -26.2% with Agp 24 (D3mth); -21.5% in the assay with Agp 24 (D4mth); -18.7% in the assay with Agp 24 (D5mth); -39.5% in the assay on Agp 24 (D6mth). The “Agp 24, mean variation (%) in comparison with D0” value with Agp 24 (D7mth) is -25%.
